# Assay results reported in US7208314B2, “Compositions and methods for drug delivery using pH sensitive molecules” (priority 2002, dated 2007).
# Read-outs that look alike come from different tables or passages of the source. Peptide text beside a SMILES is read from it. * marks the point of attachment. X1 = C/C(C(=O)O)=C(\C)C(=O)*
# How the values were obtained:
# red blood cells = test: Blood lysis experiment on melittin conjugated to microspheres via ketal; assay type: cell-based; settings: control, 100% lysis with melittin alone
# Protocol: The microspheres were taken up in H2O (500 μL) and partitioned into five 100 μL samples. Four of the samples were diluted to 1000 μL with sodium phosphate buffer (100 mM) at pH 7.5, 6.0, 5.5, and 5.0. Samples were held at 37° C., spun down, and 150 μL aliquots taken at 30 min, 60 min, 90 min, and 16 hrs. A portion of each sample (100 μL) was diluted with sodium phosphate buffer (400 μL, pH 7.5) and added to red blood cells (100 μL, pH 7.5). Red blood cell lysis was measured after 10 min by measuring the absorbance at 541 nm. A control sample was also measured in which 100% of the red blood cells had been lysed with melittin alone.
# The fifth 100 μL sample was further divided into 25 μL samples, three of which were diluted to 250 μL with sodium phosphate buffer (100 mM) at pH 7.5, 6.0, and 5.0. The samples were held at 37° C. for 30 min, spun down and the supernatant removed, and resuspended in 2.5 M NaCl solution (50 μL) and mixed. After 10 min the microspheres were spun down and the supernatant removed. The samples were added to red blood cells (500 μL, 100 mM) and the absorbance was measured at 541 nm.
# HELA cells = test: Endosome disruption assay (FITC-dextran, propidium iodide); assay type: cell-based; settings: 50 μg
# Protocol: HeLa cells were plated in 6-well tissue culture dishes containing microscope slide coverslips and grown in Delbecco's Modified Eagle's Medium (DMEM)+10% fetal calf serum+penn/strep for 24–48 hours until 30–60% confluent. […] After 25 min, media containing FITC-dextran±melittin was removed, the cells were washed twice with 1 ml 37° C. DMEM lacking FITC-dextran and melittin, and cells were incubated for an additional 35 min at 37° C. in 1 ml fresh DMEM. In order to assess possible cell lysis caused by melittin, propidium iodide was added for the final 5 min of incubation. […] However, if the plasma membrane has been damaged, propidium iodide enters the cell where it will brightly stain the nucleus. To process slides for analysis, cells were washed 3 times with cold phosphate buffered saline (PBS), fixed in PBS+4% formaldehyde for 20–30 min at 4° C., and washed again 3 times with cold PBS. Excess liquid was drained from coverslips which were then mounted onto glass slides. Fluorescence was then analyzed on a Zeiss LSM510 confocal microscope. FITC was excited by a 488 nm argon laser and fluorescence emission was detected by a long pass 505 nm filter. […] For cells incubated with unmodified melittin near 100% cell death was observed as determined by propidium iodide staining of nuclei and loss of cells from the sample.
# [1] = test system: 3T3 mouse embryonic fibroblast cells; test: In vitro transfection with DNA-PLL complexes with dimethylmaleamic KL3 and dimethylmaleamic KL3-PLL; assay type: cell-based; settings: pCIluc DNA/poly-L-lysine complex plus 10 mg modified peptide; opti-MEM 4 h; 48 h
# Protocol: To a complex of plasmid DNA pCIluc (10 μg/mL, prepared according to Danko, I., Williams, P., Herweijer, H. Zhang, G., Latendresse, J. S., Bock, I., Wolff, J. A. Hum. Mol. Genetics 1997, 6, 1435.) and poly-L-lysine (40 μg/mL) in 0.5 mL water was added 10 mg of 2,3-dimethylmaleamic -KL3-PLL or 2,3-dimethylmaleamic -KL3. The DNA-poly-L-lysine-2,3-dimethylmaleamic peptide complexes were then added (200 μL) to a well containing 3T3 mouse embryonic fibroblast cells in opti-MEM. After 4 h, the media was replaced with 90% Dubelco's modified Eagle Media and 10% fetal bovine serum the cells were then allowed to incubate for 48 h. The cells were then harvested and then assayed for luciferase expression as previously reported (Wolff, J. A., Malone, R. W., Williams, P., Chong, W., Acsadi, G., Jani, A. and Felgner, P. L. Direct gene transfer into mouse muscle in vivo. Science, 1465–1468, 1990.). A Lumat LB 9507 (EG&G Berthold, Bad-Wildbad, Germany) luminometer was used. The amount of transfection was reported in relative light units and is the average transfection for two separate wells of cells.
# [2] = Hemolysis assay: melittin or KL3 blocked by anionic polymer or dimethylmaleic anhydride; assay type: cell-based; settings: pH 7.5, read-out: Percent hemolysis
# Protocol: The membrane-disruptive activity of the peptide melittin and subsequent blocking of activity by anionic polymers was measured using a red blood cell (RBC) hemolysis assay. RBCs were harvested by centrifuging whole blood for 4 min. They were washed three times with 100 mM dibasic sodium phosphate at the desired pH, and resuspended in the same buffer to yield the initial volume. They were diluted 10 times in the same buffer, and 200 uL of this suspension was used for each tube. This yields 10 ? 8 RBCs per tube. Each tube contained 800 uL of buffer, 200 uL of the RBC suspension, and the peptide with or without polymer. Each sample was then repeated to verify reproducibility. The tubes were incubated for 30 minutes in a 37 C water bath. They were spun for 5 min at full speed in the microcentifuge. Lysis was determined by measuring the absorbance of the supernatant at 541 nm, reflecting the amount of hemoglobin that had been released into the supernatant. Percent hemolysis was calculated assuming 100% lysis to be measured by the hemoglobin released by the red blood cells in water; controls of RBCs in buffer with no peptide were also run.
# [3] = Kinetics of conversion of dimethylmaleamic modified amines to amines at pH 5 (trinitrobenzenesulfonate); assay type: physicochemical; settings: 40 mM sodium acetate buffer pH 5 and 1 mM cetyltrimetylammonium bromide
# Protocol: Dimethyl maleamic modified poly-L-lysine (10 mg/mL) was incubated in 10 mM sodium acetate buffer pH 5. At various times, aliquots (10 μg) were removed and added to 0.5 mL of 100 mM borax solution containing 0.4 mM trinitrobenzenesulfonate. A half an hour later, the absorbance of the solution at 420 nm was measured. To determine the concentration of amines at each time point, the extinction coefficient was determine for the product of trinitrobenzenesulfonate and poly-L-lysine. Using this extinction coefficient we were able to calculate the amount of amines and maleamic groups at each time point. A plot of ln (At/A0) as a function of time was a straight line whose slope is the negative of the rate constant for the conversion of maleamic acid to amine and anhydride, where At is the concentration of maleamic acid at a time t and A0 is the initial concentration of maleamic acid. For two separate experiments we calculated rate constants of […] which correspond to half lives of roughly 10 and 4 minutes respectively.
# Dimethyl maleamic modified KL3 (0.1 mg/mL) was incubated in 40 mM sodium acetate buffer pH 5 and 1 mM cetyltrimetylammonium bromide. At various times, aliquots (10 μg) were removed and added to 0.05 mL of 1 M borax solution containing 4 mM trinitrobenzenesulfonate. A half an hour later, the absorbance of the solution at 420 nm was measured. […]
# [4] = test system: 3T3 mouse embryonic fibroblast cells; test: In vitro transfection with DNA-PLL-KL3 and dimethylmaleamic KL3, luciferase expression; assay type: cell-based
# Protocol: To a complex of plasmid DNA pCIluc (10 μg/mL, 0.075 mM in phosphate, 2.6 μg/μL pCIluc; prepared according to Danko, I., Williams, P., Herweijer, H. Zhang, G., Latendresse, J. S., Bock, I., Wolff, J. A. Hum. Mol. Genetics 1997, 6, 1435.) and poly-L-lysine (40 μg/mL) in 0.5 mL of 5 mM HEPES pH 7.5 was added succinylated poly-L-lysine (34,000 MW, Aldrich Chemical), 2,3-dimethylmaleamic melittin and 2,3-dimethylmaleamic KL3. The DNA-poly-L-lysine-2,3-dimethylmaleamic peptide complexes were then added (200 μL) to wells containing 3T3 mouse embryonic fibroblast cells in 290 mM glucose and 5 mM HEPES buffer pH 7.5. After 1.5 h, the glucose media was replaced with Dubelco's modified Eagle Media and the cells were allowed to incubate for 48 h. The cells were then harvested and then assayed for luciferase expression as previously reported (Wolff, J. A., Malone, R. W., Williams, P., Chong, W., Acsadi, G., Jani, A. and Felgner, P. L. Direct gene transfer into mouse muscle in vivo. Science, 1465–1468, 1990.). A Lumat LB 9507 (EG&G Berthold, Bad-Wildbad, Germany) luminometer was used. The amount of transfection was reported in relative light units and is the average transfection for two separate wells of cells.
Structure (SMILES),A541 (red blood cell lysis) (red blood cells),cell death (propidium iodide staining of nuclei and loss of cells) (HELA cells) [%],Relative Light Units (luciferase expression) [1] [Relative Light Units],"hemolysis ([2]; 30 minutes, 37 C) [%]",hemolysis ([2]; post incubation at pH 5.4 30 seconds) [%],rate constant for the conversion of maleamic acid to amine and anhydride [3] [s⁻¹],"Relative Light Units (luciferase expression) ([4]; pCIluc DNA/poly-L-lysine complex plus named additive, 48 h, average of two wells) [Relative Light Units]",Relative Light Units relative to Succinylated poly-L-lysine ([4]; value in parentheses)
"CC[C@H](C)[C@H](NC(=O)CN)C(=O)NCC(=O)N[C@@H](C)C(=O)N[C@H](C(=O)N[C@@H](CC(C)C)C(=O)N[C@@H](CCCCN)C(=O)N[C@H](C(=O)N[C@@H](CC(C)C)C(=O)N[C@H](C(=O)N[C@H](C(=O)NCC(=O)N[C@@H](CC(C)C)C(=O)N1CCC[C@H]1C(=O)N[C@@H](C)C(=O)N[C@@H](CC(C)C)C(=O)N[C@H](C(=O)N[C@@H](CO)C(=O)N[C@@H](Cc1c[nH]c2ccccc12)C(=O)N[C@H](C(=O)N[C@@H](CCCCN)C(=O)N[C@@H](CCCNC(=N)N)C(=O)N[C@@H](CCCCN)C(=O)N[C@@H](CCCNC(=N)N)C(=O)N[C@@H](CCC(N)=O)C(=O)N[C@@H](CCC(N)=O)C(N)=O)[C@@H](C)CC)[C@@H](C)CC)[C@@H](C)O)[C@@H](C)O)C(C)C)C(C)C [Melittin, reference compound]",1.881,~100,,,,,,
"C/C(C(=O)O)=C(\C)C(=O)NCCCC[C@H](NC(=O)/C(C)=C(/C)C(=O)O)C(=O)N[C@@H](CC(C)C)C(=O)N[C@@H](CC(C)C)C(=O)N[C@@H](CCCCNC(=O)/C(C)=C(/C)C(=O)O)C(=O)N[C@@H](CC(C)C)C(=O)N[C@@H](CC(C)C)C(=O)N[C@@H](CC(C)C)C(=O)N[C@@H](CCCCNC(=O)/C(C)=C(/C)C(=O)O)C(=O)N[C@@H](CC(C)C)C(=O)N[C@@H](Cc1c[nH]c2ccccc12)C(=O)N[C@@H](CC(C)C)C(=O)N[C@@H](CCCCNC(=O)/C(C)=C(/C)C(=O)O)C(=O)N[C@@H](CC(C)C)C(=O)N[C@@H](CC(C)C)C(=O)N[C@@H](CCCCNC(=O)/C(C)=C(/C)C(=O)O)C(=O)N[C@@H](CC(C)C)C(=O)N[C@@H](CC(C)C)C(=O)N[C@@H](CC(C)C)C(=O)N[C@@H](CCCCNC(=O)/C(C)=C(/C)C(=O)O)C(=O)N[C@@H](CC(C)C)C(=O)N[C@@H](CC(C)C)C(=O)O [2,3-dimethylmaleamic KL3] (X1-K(X1)LLK(X1)LLLK(X1)LWLK(X1)LLK(X1)LLLK(X1)LL-OH; N-terminus and C-terminus assumed)",,,20927,4,85,0.087,49535,7.7
